In patent publication US10752612B2, “PLK4 inhibitors” (LUDWIG INSTITUTE FOR CANCER RESEARCH LTD, priority 2015, dated 2020) one finds IC50 data, which are given here for 62 molecules.

SMILES strings stand for the structures.

The test addresses T1, human Plk4 kinase domain (aa 2-275) (Homo sapiens, UniProt O00444).
T1 construct: purified 6×His-tagged human Plk4 kinase domain (aa 2-275); 6xHis; made in house; host or cells: E. coli
T1 sequence (O00444 2-275): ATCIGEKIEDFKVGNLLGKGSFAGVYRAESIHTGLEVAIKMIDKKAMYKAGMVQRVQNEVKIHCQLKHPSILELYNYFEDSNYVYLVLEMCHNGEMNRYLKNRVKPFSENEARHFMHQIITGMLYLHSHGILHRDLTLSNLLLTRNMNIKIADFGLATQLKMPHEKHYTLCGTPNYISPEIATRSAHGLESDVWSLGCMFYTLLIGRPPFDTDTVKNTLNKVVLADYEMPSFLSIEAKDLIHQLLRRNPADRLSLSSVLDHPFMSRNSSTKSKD
Description: Plk4 kinase assay (ADP-Glo). The conditions noted are these: Table 1. In kind it is biochemical. Summed up:
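Enzyme at 2.5-10 nM final, pH 8.0, reacted 4-16 hours at 25° C; ADP generation read by ADP-Glo luminescence. Ki derived from IC50 by Cheng-Prusoff or, for tight binders, Copeland formalism.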
Consider `COc1c(Nc2cc(C)[nH]n2)nc(Sc2ccc(NC(=O)C3CC3)cc2)nc1N1CCNCC1`, for which the concentration for half-maximal inhibition (IC50) – broadly, the concentration that gives 50% inhibition – was < 1000 nM.

For `COc1c(Nc2cc(C)[nH]n2)nc(Sc2ccc(NC(=O)C3CC3)cc2)nc1N(C)C(C)C`, the IC50 fell in the range of 100 to 1000 nM.

For `COCCNc1nc(Sc2ccc(NC(=O)C3CC3)cc2)nc(Nc2cc(C)[nH]n2)c1OC`, the IC50 was < 1000 nM.

As for `CNCCN(C)c1nc(Sc2ccc(NC(=O)C3CC3)cc2)nc(Nc2cc(C)[nH]n2)c1OC`, the IC50 is 100 to 1000 nM.

Molecule `COc1c(NCCN(C)C)nc(Sc2ccc(NC(=O)C3CC3)cc2)nc1Nc1cc(C)[nH]n1` had an IC50 of 100 to 1000 nM.

The molecule `COc1c(Nc2cc(C)[nH]n2)nc(Sc2ccc(NC(=O)C3CC3)cc2)nc1N(C)CCN(C)C` returned a half-inhibitory concentration (IC50) of 100 to 1000 nM.

`COc1c(Nc2cc(C)[nH]n2)nc(Sc2ccc(S(=O)(=O)Cc3ccccc3)cc2)nc1N1CCN(CCN2CCC2)CC1`: the IC50 was < 1000 nM.

For `COc1c(Nc2cc(C)[nH]n2)nc(Sc2ccc(S(=O)(=O)Cc3ccccc3NC(C)=O)cc2)nc1N1CCN(CCN(C)C)CC1`, the IC50 is < 1000 nM.

Consider `COc1c(Nc2cc(C)[nH]n2)nc(Sc2ccc(S(=O)(=O)Cc3ccccc3C(F)(F)F)cc2)nc1N1CCN(CCN(C)C)CC1`, for which the IC50 is < 1000 nM.

`COc1c(Nc2cc(C)[nH]n2)nc(Sc2ccc(S(=O)(=O)Cc3ccccc3N(C)C)cc2)nc1N1CCN(CCN(C)C)CC1`: the IC50 is < 1000 nM.

On to `COc1c(Nc2cc(C)[nH]n2)nc(Sc2ccc(S(=O)(=O)Cc3ccccc3-c3ccccc3)cc2)nc1N1CCN(CCN(C)C)CC1`, for which the concentration for half-maximal inhibition (IC50) is < 1000 nM.

For the molecule `COc1c(Nc2cc(C)[nH]n2)nc(Sc2ccc(S(=O)(=O)Cc3ccccc3C#N)cc2)nc1N1CCN(CCN(C)C)CC1`, the IC50 is < 1000 nM.

Turning to `COc1c(Nc2cc(C)[nH]n2)nc(Sc2ccc(S(=O)(=O)Cc3cccc(C(=O)N(C)C)c3)cc2)nc1N1CCN(CCN(C)C)CC1`, the IC50 was < 1000 nM.

Take `COc1c(Nc2cc(C)[nH]n2)nc(Sc2ccc(S(=O)(=O)Cc3ccccc3C(N)=O)cc2)nc1N1CCN(CCN(C)C)CC1`: the IC50 is < 1000 nM.

In the case of `COc1c(Nc2cc(C)[nH]n2)nc(Sc2ccc(S(=O)(=O)Cc3ccccc3)cc2)nc1N1CCC(CCC23CC4CCC(C2)N43)CC1` (centres unmarked), the half-maximal inhibitory concentration (IC50) is < 1000 nM.

For the molecule `COc1c(Nc2cc(C)[nH]n2)nc(Sc2ccc(S(=O)(=O)Cc3cccc([N+](=O)[O-])c3)cc2)nc1N1CCOC[C@H]1C`, the IC50 is < 1000 nM.

In the case of `COc1c(Nc2cc(C)[nH]n2)nc(Sc2ccc(S(=O)(=O)Cc3ccccc3)cc2)nc1N1CCN(C2CCNCC2)CC1`, the IC50 was < 1000 nM.

With `COc1c(Nc2cc(C)[nH]n2)nc(Sc2ccc(S(=O)(=O)Cc3ccccc3)cc2Cl)nc1N1CCN(CCN(C)C)CC1`, the IC50 was < 1000 nM.

In the case of `COc1c(Nc2cc(C)[nH]n2)nc(Sc2ccc(S(=O)(=O)Cc3cccc([N+](=O)[O-])c3)cc2)nc1N1CCO[C@H](C)C1`, the IC50 is < 1000 nM.

Take `COc1c(Nc2cc(C)[nH]n2)nc(Sc2ccc(S(=O)(=O)Cc3cccc([N+](=O)[O-])c3)cc2)nc1N1CCO[C@@H](C)C1`: the IC50 is < 1000 nM.

For the molecule `COc1c(Nc2cc(C)[nH]n2)nc(Sc2ccc(S(=O)(=O)Cc3cccc(NC(C)=O)c3)cc2)nc1N1CCN(CCN(C)C)CC1`, the IC50 was < 1000 nM.

Consider `COc1c(Nc2cc(C)[nH]n2)nc(Sc2ccc(S(=O)(=O)Cc3cccc(N(C)C)c3)cc2)nc1N1CCN(CCN(C)C)CC1`, for which the IC50 is < 1000 nM.

Take `COC(=O)c1ccccc1CS(=O)(=O)c1ccc(Sc2nc(Nc3cc(C)[nH]n3)c(OC)c(N3CCN(CCN(C)C)CC3)n2)cc1`: the IC50 is < 1000 nM.

In the case of `COc1c(Nc2cc(C)[nH]n2)nc(Sc2ccc(S(=O)(=O)Cc3ccccc3C(=O)N(C)C)cc2)nc1N1CCN(CCN(C)C)CC1`, the IC50 was < 1000 nM.

`COc1c(Nc2cc(C)[nH]n2)nc(Sc2ccc(S(=O)(=O)Cc3cccc(C(=O)O)c3)cc2)nc1N1CCN(CCN(C)C)CC1`: the IC50 was < 1000 nM.

As to `COc1c(Nc2cc(C)[nH]n2)nc(Sc2ccc(S(=O)(=O)Cc3ccccc3C(=O)O)cc2)nc1N1CCN(CCN(C)C)CC1`, the IC50 is < 1000 nM.

Take `COc1ccc([N+](=O)[O-])cc1CS(=O)(=O)c1ccc(Sc2nc(Nc3cc(C)[nH]n3)c(OC)c(N3CCN(CCN(C)C)CC3)n2)cc1`: the IC50 was < 1000 nM.

Turning to `COc1c(CS(=O)(=O)c2ccc(Sc3nc(Nc4cc(C)[nH]n4)c(OC)c(N4CCN(CCN(C)C)CC4)n3)cc2)cccc1[N+](=O)[O-]`, the half-maximal inhibitory concentration (IC50) is < 1000 nM.

`COc1c(Nc2cc(C)[nH]n2)nc(Sc2ccc(S(=O)(=O)Cc3cc([N+](=O)[O-])ccc3F)cc2)nc1N1CCN(CCN(C)C)CC1`: the IC50 was < 1000 nM.

Consider `COc1c(Nc2cc(C)[nH]n2)nc(Sc2ccc(S(=O)(=O)Cc3cccc([N+](=O)[O-])c3)cc2F)nc1N1CCN(CCN(C)C)CC1`, for which the IC50 is < 1000 nM.

With `COc1c(Nc2cc(C)[nH]n2)nc(Sc2ccc(S(=O)(=O)Cc3cccc([N+](=O)[O-])c3F)cc2)nc1N1CCCCC1`, the IC50 is < 1000 nM.

For `COc1c(Nc2cc(C)[nH]n2)nc(Sc2ccc(S(=O)(=O)Cc3cccc([N+](=O)[O-])c3F)cc2)nc1N1CCOCC1`, the IC50 was < 1000 nM.

For the molecule `COc1c(Nc2cc(C)[nH]n2)nc(Sc2ccc(S(=O)(=O)Cc3cc(F)cc([N+](=O)[O-])c3)cc2)nc1N1CCN(CCN(C)C)CC1`, the IC50 is < 1000 nM.

For `COc1c(Nc2cc(C)[nH]n2)nc(Sc2ccc(S(=O)(=O)Cc3cccc([N+](=O)[O-])c3Cl)cc2)nc1N1CCN(CCN(C)C)CC1`, the IC50 is < 1000 nM.

For the molecule `COc1c(Nc2cc(C)[nH]n2)nc(Sc2ccc(S(=O)(=O)Cc3cccc([N+](=O)[O-])c3F)cc2F)nc1N1CCN(CCN(C)C)CC1`, the 50% inhibitory concentration (IC50) is < 1000 nM.

Turning to `COc1c(Nc2cc(C)[nH]n2)nc(Sc2ccc(S(=O)(=O)Cc3cccc([N+](=O)[O-])c3)cc2F)nc1N1CCOCC1`, the IC50 was < 1000 nM.

`COc1c(Nc2cc(C)[nH]n2)nc(Sc2ccc(S(=O)(=O)Cc3cccc([N+](=O)[O-])c3)cc2F)nc1N1CCOC[C@@H]1C`: the IC50 was < 1000 nM.

Turning to `COc1c(Nc2cc(C)[nH]n2)nc(Sc2ccc(S(=O)(=O)Cc3cccc([N+](=O)[O-])c3C#N)cc2)nc1N1CCN(CCN(C)C)CC1`, the IC50 is < 1000 nM.

On to `COc1c(Nc2cc(C)[nH]n2)nc(Sc2ccc(S(=O)(=O)Cc3cccc([N+](=O)[O-])c3F)cc2)nc1N1CCC(O)CC1`, for which the IC50 is < 1000 nM.

For `COc1c(Nc2cc(C)[nH]n2)nc(Sc2ccc(S(=O)(=O)Cc3cccc([N+](=O)[O-])c3O)cc2)nc1N1CCN(CCN(C)C)CC1`, the IC50 is < 1000 nM.

In the case of `COc1c(Nc2cc(C)[nH]n2)nc(Sc2ccc(S(=O)(=O)Cc3cccc([N+](=O)[O-])c3)cc2)nc1N1C2CCC1COC2`, the IC50 was < 1000 nM.

Turning to `COc1c(Nc2cc(C)[nH]n2)nc(Sc2ccc(S(C)(=O)=O)cc2F)nc1N1CCC(CCN(C)C)CC1`, the IC50 was < 1000 nM.

Take `COc1c(Nc2cc(C)[nH]n2)nc(Sc2ccc(S(C)(=O)=O)cc2F)nc1N1CCN(CCN(C)C)CC1`: the IC50 is < 1000 nM.

Turning to `COc1c(Nc2cc(C)[nH]n2)nc(Sc2ccc(S(C)(=O)=O)cc2Cl)nc1N1CCN(CCN(C)C)CC1`, the IC50 was < 1000 nM.

For the molecule `COc1c(Nc2cc(C)[nH]n2)nc(Sc2ccc(S(C)(=O)=O)cc2Cl)nc1N1CCC(CCN(C)C)CC1`, the IC50 was < 1000 nM.

`CCS(=O)(=O)c1ccc(Sc2nc(Nc3cc(C)[nH]n3)c(OC)c(N3CCOCC3)n2)c(Cl)c1`: the IC50 is < 1000 nM.

As for `COc1c(Nc2cc(C)[nH]n2)nc(Sc2ccc(S(=O)(=O)Cc3cccc([N+](=O)[O-])c3F)cc2F)nc1N1CCOC[C@H]1C`, the IC50 was < 1000 nM.

Regarding `COc1c(Nc2cc(C)[nH]n2)nc(Sc2ccc(S(=O)(=O)Cc3cccc([N+](=O)[O-])c3)cc2F)nc1N1CCOC[C@H]1C`, the IC50 was < 1000 nM.

As for `CCS(=O)(=O)c1ccc(Sc2nc(Nc3cc(C)[nH]n3)c(OC)c(N3CCN(CCN(C)C)CC3)n2)c(Cl)c1`, the IC50 was < 1000 nM.

With `CCS(=O)(=O)c1ccc(Sc2nc(Nc3cc(C)[nH]n3)c(OC)c(N3CCC(CCN(C)C)CC3)n2)c(Cl)c1`, the IC50 was < 1000 nM.

`CCS(=O)(=O)c1ccc(Sc2nc(Nc3cc(C)[nH]n3)c(OC)c(N3CCN(C)CC3)n2)c(Cl)c1`: the IC50 is < 1000 nM.

As for `CCS(=O)(=O)c1ccc(Sc2nc(Nc3cc(C)[nH]n3)c(OC)c(N3CCN(CCN(C)C)CC3)n2)c(F)c1`, the IC50 was < 1000 nM.

Regarding `CCS(=O)(=O)c1ccc(Sc2nc(Nc3cc(C)[nH]n3)c(OC)c(N3CCC(CCN(C)C)CC3)n2)c(F)c1`, the IC50 is < 1000 nM.

As to `CCS(=O)(=O)c1ccc(Sc2nc(Nc3cc(C)[nH]n3)c(OC)c(N3CCOC[C@@H]3C)n2)c(Cl)c1`, the IC50 is < 1000 nM.

Take `COc1c(Nc2cc(C)[nH]n2)nc(Sc2ccc(S(C)(=O)=O)cc2F)nc1N1CCOC[C@@H]1C`: the half-maximal inhibitory concentration (IC50) is < 1000 nM.

Regarding `COc1c(Nc2cc(C)[nH]n2)nc(Sc2ccc(S(=O)(=O)Cc3cccc(F)c3F)cc2F)nc1N1CCCCC1`, the IC50 is < 1000 nM.

For `COc1c(Nc2cc(C)[nH]n2)nc(Sc2ccc(S(=O)(=O)Cc3cccc(F)c3F)cc2F)nc1N1CCOCC1`, the IC50 is < 1000 nM.

Take `COc1c(Nc2cc(C)[nH]n2)nc(Sc2ccc(S(=O)(=O)Cc3cccc(F)c3F)cc2F)nc1N1CCN(CCN(C)C)CC1`: the IC50 is < 1000 nM.

For `COc1c(Nc2cc(C)[nH]n2)nc(Sc2ccc(S(=O)(=O)Cc3cccc(F)c3F)cc2F)nc1N1CCOC[C@@H]1C`, the IC50 is < 1000 nM.

For the molecule `COc1c(Nc2cc(C)[nH]n2)nc(Sc2ccc(S(=O)(=O)Cc3c(F)ccc(F)c3F)cc2F)nc1N1CCN(CCN(C)C)CC1`, the IC50 is < 1000 nM.

In the case of `COc1c(Nc2cc(C)[nH]n2)nc(Sc2ccc(S(=O)(=O)Cc3cccc([N+](=O)[O-])c3F)cc2F)nc1N1CCOC[C@@H]1C`, the IC50 is < 1000 nM.

Consider `COc1c(Nc2cc(C)[nH]n2)nc(Sc2ccc(S(=O)(=O)Cc3cccc([N+](=O)[O-])c3)cc2)nc1N1CCOC[C@@H]1CO`, for which the 50% inhibitory concentration (IC50) is < 1000 nM.
